Source: the supplement of paper PMC10307832

Compound: Cc1ccc(NC(=O)c2ccc(CN3CCN(C)CC3)cc2)cc1Nc1nc(-c2cccnc2)cs1 [Masitinib] + Cc1cc(Nc2cc(N3CCN(C)CC3)nc(Sc3ccc(NC(=O)C4CC4)cc3)n2)n[nH]1 [Tozasertib] (partner 0.1 µM)
Experiment: relative viability (nuclei count vs DMSO), 5 days (fraction); higher = more cells survive
Details: first compound 0.1 µM
In short: (§1)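 The day after seeding in 1536-well plates, lung cancer cell lines were treated by pin tool with a single drug, or with a fixed anchor-drug dose together with five library-drug doses (not always all listed) in √10 steps. After 5 days, a combined fix-and-stain solution (final 0.05% Triton X-100, 1% formaldehyde, 1 ug/ml Hoechst) was added. Nuclei counted on 4× images gave relative viability as treated counts over vehicle counts, reported as the median of duplicate plates.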

Row | Cell Line | relative viability
1 | NCI-H1437 | 0.4
2 | NCI-H322M | 0.485
3 | NCI-H2085 | 0.865
4 | HCC-15 | 0.433
5 | PC-3 [JPC-3] | 0.917
6 | EKVX | 0.405
7 | LC-2-ad | 0.435
8 | NCI-H1650 | 0.297
9 | NCI-H2170 | 0.746

Same assay, conditions: first compound 0.3162 µM

Row | Cell Line | relative viability
10 | HARA | 0.0979
11 | NCI-H441 | 0.7
12 | LCLC-97TM1 | 0.247
13 | NCI-H2023 | 0.184
14 | A-427 | 0.171
15 | NCI-H460 | 0.0644
16 | NCI-H727 | 0.664
17 | NCI-H1755 | 0.57
18 | NCI-H520 | 0.451
19 | NCI-H2405 | 0.631
20 | SW 1573 | 0.15
21 | NCI-H1395 | 0.782
22 | 201T | 0.789
23 | HCC-827 | 0.457
24 | NCI-H2347 | 0.563
25 | NCI-H1355 | 0.384

Row | Cell Line | relative viability
26 | NCI-H650 | 0.745
27 | CAL-12T | 0.192
28 | NCI-H1666 | 0.58
29 | EPLC-272H | 0.357
30 | NCI-H23 | 0.223
31 | NCI-H1915 | 0.44
32 | NCI-H1437 | 0.426
33 | NCI-H322M | 0.449
34 | NCI-H2085 | 0.479
35 | HCC-15 | 0.387
36 | NCI-H1944 | 0.205
37 | PC-3 [JPC-3] | 0.824
38 | EKVX | 0.443
39 | LC-2-ad | 0.391
40 | NCI-H1650 | 0.326
41 | NCI-H2170 | 0.739

Same assay, conditions: first compound 1 µM

Row | Cell Line | relative viability
42 | HARA | 0.104
43 | NCI-H441 | 0.473
44 | LCLC-97TM1 | 0.286
45 | NCI-H2023 | 0.189
46 | A-427 | 0.227
47 | NCI-H460 | 0.168
48 | NCI-H727 | 0.548
49 | NCI-H1755 | 0.454
50 | NCI-H520 | 0.358
51 | NCI-H2405 | 0.635
52 | SW 1573 | 0.135
53 | NCI-H1395 | 0.624
54 | 201T | 0.926
55 | NCI-H1975 | 0.263
56 | HCC-827 | 0.514
57 | NCI-H2347 | 0.394
58 | NCI-H1355 | 0.394

Row | Cell Line | relative viability
59 | NCI-H650 | 0.665
60 | CAL-12T | 0.234
61 | NCI-H1666 | 0.585
62 | EPLC-272H | 0.244
63 | NCI-H23 | 0.263
64 | NCI-H1915 | 0.387
65 | NCI-H1437 | 0.36
66 | NCI-H322M | 0.467
67 | NCI-H2085 | 0.663
68 | HCC-15 | 0.243
69 | NCI-H1944 | 0.247
70 | PC-3 [JPC-3] | 0.878
71 | EKVX | 0.333
72 | LC-2-ad | 0.384
73 | NCI-H1650 | 0.23
74 | NCI-H2170 | 0.671

Compound: CC1=CC(=CC=C1)NC2=NC(=CS2)C3=CC=NC=C3 + CCNC(=O)c1noc(-c2cc(C(C)C)c(O)cc2O)c1-c1ccc(CN2CCOCC2)cc1 [Luminespib] (partner 0.01 µM)
Experiment: as above
Details: first compound 0.08 µM
In short: as §1

Row | Cell Line | relative viability
75 | HARA | 0.494
76 | NCI-H441 | 0.411
77 | LCLC-97TM1 | 0.689
78 | NCI-H2023 | 0.716
79 | A-427 | 0.738
80 | NCI-H460 | 0.0315
